The subject of this assay is influenza NAs.

For “4-Guanidino-Neu5Acα2-3LacNAcβPorNH-PEG4-Biotin [Compound 10d]”, the “resistance of immobilized sialoside to NA-catalyzed cleavage during BLI incubation” value is listed as “resistant to the NA-catalyzed cleavage”.

Regarding “4NH2Neu5Acα2-3LacNAcβPorNH-PEG4-Biotin [Compound 9d]”, the “resistance of immobilized sialoside to NA-catalyzed cleavage during BLI incubation” value is “bound to the NAs but was partially cleaved off during the incubation”.

The record behind these values is patent US20260242405A1, “N-DERIVATIZED SIALIC ACIDS AND RELATED SIALOSIDES” (THE REGENTS OF THE UNIVERSITY OF CALIFORNIA, priority 2023, published 2026).
